Measurements from US7998493B2, “Cosmetic or dermopharmaceutical compositions which are used to reduce bags and circles under the eyes” (Sederma SAS, priority 2002, dated 2011).
Blank lines part the entries; values can stand above or below the compound they belong to. Peptide text beside a SMILES is read from it. * marks the point of attachment. Palmitoyl = CCCCCCCCCCCCCCCC(=O)*

Columns and labels:
H-Val-Trp = tested on: T1, H-Val-Trp
T1 sequence: VW

[1] = target: Converting enzyme (EC 3.4.15.1) (Homo sapiens, UniProt P12821); assay: ACE-inhibition test (FAPGG decomposition, ΔOD at 340 nm; derived from Sigma Diagnostics method No. 305-UV); format: biochemical; conditions: for ΔOD: 340 nm, mean of five tests
From the text: The test is derived from Sigma Diagnostics method No. 305-UV.
Converting enzyme (EC 3.4.15.1) decomposes synthetic tripeptide FAPGG into FAP+glycylglycine. The change in optical density (ΔOD) at 340 nm is directly proportional to disappearance of the FAPGG, which allows a quantification of the converting enzyme activity.
The inhibiting effect of a compound is investigated according to the same principle, but in the presence of various concentrations of the test compounds.

[2] = tested on: Normal human keratinocytes and fibroblasts; assay: Cell viability by conventional MTT test; format: cell-based; conditions: maximum concentration used (45 ppm)
Experimental: Normal human keratinocytes and fibroblasts are cultured in a conventional medium in the presence or absence of various concentrations (10-45 ppm) of peptide Pal-GQPR (SEQ ID NO:2). After 24 hours the cells are rinsed in the same medium without Pal-GQPR (SEQ ID NO:2) and, after being subjected to irradiation of 35 mJ/cm^2, the same cells are returned to the culture for 48 hours, without Pal-GQPR (SEQ ID NO:2) or in its presence in the same concentrations as during the initial culture period. Cellular IL-6 is then determined using a standard ELISA test kit.
In parallel with this, to make certain that the concentration reductions observed were not due to cell mortality induced by the peptide itself, viability of the cells was verified by the conventional MTT test.

[3] = target: angiotensin converting enzyme (EC 3.4.15.1); assay: cell-based or functional assay

Converting enzyme (EC 3.4.15.1), sequence (P12821 30-1306): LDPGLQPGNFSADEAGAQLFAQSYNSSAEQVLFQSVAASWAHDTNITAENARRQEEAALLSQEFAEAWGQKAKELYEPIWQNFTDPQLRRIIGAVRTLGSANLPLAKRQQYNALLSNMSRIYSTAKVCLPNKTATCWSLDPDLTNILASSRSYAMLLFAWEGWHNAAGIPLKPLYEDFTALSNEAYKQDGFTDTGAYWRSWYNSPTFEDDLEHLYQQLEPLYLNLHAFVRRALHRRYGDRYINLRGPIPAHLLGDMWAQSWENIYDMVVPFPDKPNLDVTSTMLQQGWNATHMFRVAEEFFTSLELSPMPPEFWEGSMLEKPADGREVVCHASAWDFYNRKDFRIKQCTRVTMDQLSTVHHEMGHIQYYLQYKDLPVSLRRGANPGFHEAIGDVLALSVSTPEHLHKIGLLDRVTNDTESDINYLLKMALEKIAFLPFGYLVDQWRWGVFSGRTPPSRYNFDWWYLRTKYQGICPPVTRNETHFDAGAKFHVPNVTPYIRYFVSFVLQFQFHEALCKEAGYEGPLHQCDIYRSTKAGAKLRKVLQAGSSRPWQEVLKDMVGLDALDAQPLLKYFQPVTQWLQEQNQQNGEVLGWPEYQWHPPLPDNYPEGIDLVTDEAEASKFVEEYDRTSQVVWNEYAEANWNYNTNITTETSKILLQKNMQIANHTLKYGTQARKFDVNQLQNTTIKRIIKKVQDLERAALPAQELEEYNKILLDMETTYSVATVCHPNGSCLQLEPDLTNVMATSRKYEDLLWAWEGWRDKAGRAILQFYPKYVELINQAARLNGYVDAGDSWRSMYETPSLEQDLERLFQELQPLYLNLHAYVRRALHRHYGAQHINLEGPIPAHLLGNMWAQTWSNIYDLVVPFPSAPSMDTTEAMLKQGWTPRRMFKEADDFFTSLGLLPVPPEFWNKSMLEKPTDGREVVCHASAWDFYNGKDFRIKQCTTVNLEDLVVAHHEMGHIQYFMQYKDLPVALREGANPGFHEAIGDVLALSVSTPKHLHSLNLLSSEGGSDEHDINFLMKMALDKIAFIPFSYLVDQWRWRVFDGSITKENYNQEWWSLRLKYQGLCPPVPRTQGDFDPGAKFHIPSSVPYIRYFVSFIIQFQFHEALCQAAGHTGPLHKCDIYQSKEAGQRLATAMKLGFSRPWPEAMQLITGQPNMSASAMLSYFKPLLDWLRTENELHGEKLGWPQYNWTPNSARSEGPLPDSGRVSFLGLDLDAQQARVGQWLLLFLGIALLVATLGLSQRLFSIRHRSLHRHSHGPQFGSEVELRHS

Compound: angiotensin converting enzyme (EC 3.4.15.1)
ΔOD (340 nm, FAPGG hydrolysis by converting enzyme), peptide at 10 ppm (H-Val-Trp): 0.08 ΔOD
ΔOD (340 nm, FAPGG hydrolysis by converting enzyme), peptide at 50 ppm (H-Val-Trp): 0.018 ΔOD

Inhibition ([1]; peptide 10 ppm): 27.3%
ΔOD ([1]; peptide 10 ppm): 0.080
Inhibition ([1]; peptide 50 ppm): 83.4%
ΔOD ([1]; peptide 50 ppm): 0.018
Compound: H-Val-Trp

Compound: CCCCCCCCCCCCCCCC(=O)NCC(=O)N[C@@H](CCC(N)=O)C(=O)N1CCC[C@H]1C(=O)N[C@@H](CCCNC(=N)N)C(=O)O [N-Palmitoyl-Gly-Gln-Pro-Arg] (Palmitoyl-GQPR-OH)
Cytotoxic effect (cell viability, MTT) [2]: does not exert any cytotoxic effect

Inhibition (converting enzyme activity, FAPGG hydrolysis, ΔOD at 340 nm), peptide at 10 ppm [3]: 27.3%
Inhibition (converting enzyme activity, FAPGG hydrolysis, ΔOD at 340 nm), peptide at 50 ppm [3]: 83.4%
Compound: H-Val-Trp (peptide)
